Source: paper PMC7409302 (Cancers, 2020)

Target: T1, androgen receptor (AR) (Homo sapiens, UniProt P10275, T878A)
T1 construct: endogenous full-length AR in LNCaP cells
T1 sequence (P10275 1-920 T878A): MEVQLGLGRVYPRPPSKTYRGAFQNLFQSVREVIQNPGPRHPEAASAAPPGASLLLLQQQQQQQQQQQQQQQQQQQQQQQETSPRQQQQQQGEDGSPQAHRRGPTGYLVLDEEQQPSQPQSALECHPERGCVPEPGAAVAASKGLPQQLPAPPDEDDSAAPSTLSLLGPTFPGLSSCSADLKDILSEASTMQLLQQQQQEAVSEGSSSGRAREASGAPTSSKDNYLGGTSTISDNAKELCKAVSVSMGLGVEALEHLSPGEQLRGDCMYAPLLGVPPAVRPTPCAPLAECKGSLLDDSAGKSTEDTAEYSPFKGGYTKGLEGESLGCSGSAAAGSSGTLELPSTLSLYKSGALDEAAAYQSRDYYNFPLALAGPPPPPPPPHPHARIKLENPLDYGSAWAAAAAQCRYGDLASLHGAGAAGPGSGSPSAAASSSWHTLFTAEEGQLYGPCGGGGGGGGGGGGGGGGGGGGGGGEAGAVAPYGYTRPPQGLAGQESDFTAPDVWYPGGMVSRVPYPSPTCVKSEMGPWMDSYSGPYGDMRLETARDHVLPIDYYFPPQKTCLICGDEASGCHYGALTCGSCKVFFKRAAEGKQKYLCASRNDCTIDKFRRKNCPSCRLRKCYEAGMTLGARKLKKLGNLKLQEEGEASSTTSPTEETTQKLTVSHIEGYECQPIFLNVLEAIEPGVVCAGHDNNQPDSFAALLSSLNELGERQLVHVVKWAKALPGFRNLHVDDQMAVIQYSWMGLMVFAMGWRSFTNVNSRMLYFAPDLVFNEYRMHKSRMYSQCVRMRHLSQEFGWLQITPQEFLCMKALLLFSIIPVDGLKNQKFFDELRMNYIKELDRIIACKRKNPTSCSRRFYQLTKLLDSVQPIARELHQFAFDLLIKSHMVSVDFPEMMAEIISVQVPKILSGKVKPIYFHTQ
Assay: androgen (R1881)-induced PSA([…].1kb)-luciferase reporter in LNCaP cells
Type: cell-based

CC(C)(c1ccc(OC[C@H](O)CNS(C)(=O)=O)cc1)c1cc(Cl)c(OC[C@H](O)CCl)c(Cl)c1 [EPI-7170]
IC50: 1080 ± 550 nM
